≈ marks a conversion by molar mass, not a printed value.
Assay: physchem

| solubility (aqueous buffer, solubility, pH higher than 4.8) | solubility (aqueous buffer, solubility, pH lower than 4.8) | Structure (SMILES) | solubility (pH 2, simulated gastric fluid) | solubility (pH 5.5, aqueous buffer) |
| --- | --- | --- | --- | --- |
| ~333000 µg/mL (≈ 2970 mM) | ~2500 µg/mL (≈ 22.3 mM) | C/C=C/C=C/C(=O)O [Sorbic acid] |  |  |
|  |  | CCC(COC(=O)c1cc(OC)c(OC)c(OC)c1)(c1ccccc1)N(C)C (stereo not shown) [Trimebutine] | ~11000 µg/mL (≈ 28.4 mM) | 1000 µg/mL (≈ 2.58 mM) |

Reference: patent US20080318910A1, “Controlled-Release Oral Dosage Form” (MISTRAL PHARMA, INC., priority 2005, published 2008)
